Measured values from US10047083B2, “Dihydropyrimidinoisoquinolinones and pharmaceutical compositions thereof for the treatment of inflammatory disorders” (GALAPAGOS NV, priority 2011, dated 2018).

Columns and labels:
[1] = molecular target: T1, GPR84 (Homo sapiens, UniProt Q9NQS5); assay: GTPγS binding assay (GPR84); type: biochemical; conditions: membranes from stable cell line over expressing GPR84; 3,3′ di indolylmethane at EC80
T1 construct: expressed in transfected cells; membranes used
In short: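 Membranes (20 μg/well) from a stable GPR84-overexpressing line, pre-incubated with 0.1 μM GDP for 15 min at 4° C, mixed with 0.1 nM [35S]GTPγS and WGA SpA beads in 20 mM HEPES pH 7.4, 5 mM MgCl2, 250 mM NaCl, 0.05% BSA, 75 ug/mL saponin; 90 min at room temperature, then scintillation counting.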

[2] = tested on: human neutrophils; assay: Human neutrophil migration assay (embelin-induced); type: cell-based; conditions: neutrophils from human buffy coat, 30 min compound pre-incubation, migration towards embelin at EC80 for 1 h, ATPlite readout, read-out: human neutrophil migration inhibition (Neutrophils)
Method: 2. Cellular Assays 2.1. Human Neutrophil Migration Assay
The effect of agonists or antagonists for GPR84 can therefore be assayed in a neutrophil migration test. In the neutrophil migration assay, neutrophils, freshly isolated from buffy coats from human volunteers, are treated with a compound for 30 minutes. Subsequently, the neutrophils are transferred to the upper wells of a Corning HTS transwell 96 permeable support system, of which the lower wells are filled with a embelin solution at EC80 (concentration which gives 80% of the activity of GPR84). After 1 h of incubation, migration of the neutrophils towards embelin in the lower compartment can be quantified by measuring the ATP-content of the lower wells using the ATPlite luminescence ATP detection assay system (Perkin Elmer, Cat. No.: 436110).
A human buffy coat is diluted with an equal volume of ice cold DPBS. 20 mL of the diluted buffy coat is gently mixed with 4 mL of ACD buffer (140 mM citric acid, 200 mM sodium citrate and 220 mM dextrose). Then, 12 mL of the 6% dextran/0.9% NaCl solution (15 g dextran T2000 and 2.25 g NaCl dissolved in 250 mL H2O) is added to the mixture and the samples are inverted gently up to 20 times. The total volume was transferred to a new recipient and incubated at room temperature for 1 h for complete separation of the two phases to occur. The yellowish supernatant is then transferred to a clean centrifugation tube and centrifuged for 12 minutes at 1300 rpm and 4° C. After centrifugation, the supernatant is discarded and the remaining cell pellet is rapidly resuspended in 12 mL of ice-cold H2O for red blood cell lysis to occur. After 20 seconds, 4 mL of ice-cold 0.6 M KCl is added. Samples are mixed carefully and centrifuged for 6 minutes at 1300 rpm, 4° C. The supernatant is discarded and the red blood cell lysis procedure is repeated one more time. Subsequently, the cell pellet is resuspended in 4 mL of DPBS and layered over 5 mL of Lymphoprep (Nycomed Pharma, Cat. No.: 1114545) in a 15 mL centrifuge tube. After centrifugation for 12 min at 1300 rpm, 4° C., the supernatant is removed and the cell pellet, containing the neutrophils, is resuspended in 25 mL chemotaxis buffer (RPMI 1640 medium, supplemented with 10 mM HEPES; freshly made for each experiment)
A cell suspension of 8.9×10^6 cells per milliliter is prepared. 20 μL of compound solution in chemotaxis buffer is added to 180 μL cell suspension. The mixture is incubated at 37° C. for 30 minutes with intermediate resuspension of the cells after 15 minutes. Following this, 70 μL cell suspension is transferred to the upper compartment of a Corning HTS transwell 96 permeable support system with 5.0 μm pore size polycarbonate membrane (Corning, Cat. No.: 3387). The receiver well of the transwell system is then filled with 200 μL chemotaxis buffer containing compound and chemotactic agent (embelin). After incubation at 37° C. in 5% CO2 for 1 h, the upper plate of the transwell system is removed and the cell suspension in the receiver plate is transferred to a 96-well V-bottom plate. 50 μL of DPBS is added to the receiver plate to prevent remaining cells from drying out. The V-bottom plate is centrifuged for 6 minutes at 1500 rpm. The supernatant is removed and the cells are resuspended in 50 μL DPBS. The cells are then transferred back to the receiver plate of the transwell system. After this, 100 μL ATPlite solution (Perkin Elmer, Cat. No: 436110) was added to the cells. The plate is incubated for 10 minutes in the dark, while shaking. […] of cell lysate is then transferred to a white 96-well plate and luminescence is measured. The detected luminescent signal is considered as linearely related to the number of cells having migrated from the upper well to the receiver well.

T1 sequence (Q9NQS5 whole entry): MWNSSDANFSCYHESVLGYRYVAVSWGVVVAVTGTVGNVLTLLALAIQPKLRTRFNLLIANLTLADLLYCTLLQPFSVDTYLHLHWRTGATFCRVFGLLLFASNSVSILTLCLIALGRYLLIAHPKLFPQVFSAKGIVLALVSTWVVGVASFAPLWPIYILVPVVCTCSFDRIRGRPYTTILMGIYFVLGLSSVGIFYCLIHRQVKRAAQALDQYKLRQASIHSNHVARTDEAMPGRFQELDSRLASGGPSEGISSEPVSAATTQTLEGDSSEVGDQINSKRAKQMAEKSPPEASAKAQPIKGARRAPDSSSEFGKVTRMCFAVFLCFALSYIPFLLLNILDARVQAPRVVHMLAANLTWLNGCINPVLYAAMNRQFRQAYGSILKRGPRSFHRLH

Row | SMILES | IC50 [1] [nM] | IC50 [2] [nM]
1 | O=c1nc(OCC2COCCO2)cc2n1CCc1cc(OCc3ccccn3)ccc1-2 (stereo not shown) [Compound 9, 2-([1,4]dioxan-2-ylmethoxy)-9-(pyridin-2-ylmethoxy)-6,7-dihydro-pyrimido[6,1-a]isoquinolin-4-one] | 0.01 to 100 | 0.01 to 100
2 | CC(C)(C)c1nc(COc2ccc3c(c2)CCn2c-3cc(OCC3COCCO3)nc2=O)no1 (stereo not shown) [Compound 17, 9-(5-tert-butyl-[1,2,4]oxadiazol-3-ylmethoxy)-2-([1,4]dioxan-2-ylmethoxy)-6,7-dihydro-pyrimido[6,1-a]isoquinolin-4-one] |  | 0.01 to 100
3 | CCCC#Cc1ccc2c(c1)CCn1c-2cc(OCC2COCCO2)nc1=O (stereo not shown) [Compound 19, 2-([1,4]dioxan-2-ylmethoxy)-9-pent-1-ynyl-6,7-dihydro-pyrimido[6,1-a]isoquinolin-4-one] |  | 0.01 to 100
4 | O=c1nc(OCC2COCCO2)cc2n1CCc1cc(CCc3ccccn3)ccc1-2 (stereo not shown) [Compound 20, 2-([1,4]dioxan-2-ylmethoxy)-9-(2-pyridin-2-yl-ethyl)-6,7-dihydro-pyrimido[6,1-a]isoquinolin-4-one] |  | 0.01 to 100
5 | O=c1nc(OCC2COCCO2)cc2n1CCc1cc(C#CC3CC3)ccc1-2 (stereo not shown) [Compound 30, 9-cyclopropylethynyl-2-([1,4]dioxan-2-ylmethoxy)-6,7-dihydro-pyrimido[6,1-a]isoquinolin-4-one] |  | 0.01 to 100
6 | Cc1ccc(-c2ccc3c(c2)CCn2c-3cc(OCC3COCCO3)nc2=O)cn1 (stereo not shown) [Compound 35, 2-([1,4]dioxan-2-ylmethoxy)-9-(6-methyl-pyridin-3-yl)-6,7-dihydro-pyrimido[6,1-a]isoquinolin-4-one] |  | 101 to 500
7 | O=c1nc(OCC2COCCO2)cc2n1CCc1cc(C#Cc3cccnc3)ccc1-2 (stereo not shown) [Compound 41, 2-([1,4]dioxan-2-ylmethoxy)-9-pyridin-3-ylethynyl-6,7-dihydro-pyrimido[6,1-a]isoquinolin-4-one] | 101 to 500 | 0.01 to 100
8 | CNC(=O)c1ccc(-c2ccc3c(c2)CCn2c-3cc(OCC3COCCO3)nc2=O)cc1 (stereo not shown) [Compound 42, 4-[2-([1,4]dioxan-2-ylmethoxy)-4-oxo-6,7-dihydro-4H-pyrimido[6,1-a]isoquinolin-9-yl]-N-methyl-benzamide] | 101 to 500 | 101 to 500
9 | COc1ncccc1-c1ccc2c(c1)CCn1c-2cc(OCC2COCCO2)nc1=O (stereo not shown) [Compound 56, 2-([1,4]dioxan-2-ylmethoxy)-9-(2-methoxy-pyridin-3-yl)-6,7-dihydro-pyrimido[6,1-a]isoquinolin-4-one] | 101 to 500 | 101 to 500
10 | CC(C)Oc1ccc(-c2ccc3c(c2)CCn2c-3cc(OCC3COCCO3)nc2=O)cn1 (stereo not shown) [Compound 60, 2-([1,4]Dioxan-2-ylmethoxy)-9-(6-isopropoxy-pyridin-3-yl)-6,7-dihydro-pyrimido[6,1-a]isoquinolin-4-one] | 0.01 to 100 | 0.01 to 100
11 | CN(CC#Cc1ccc2c(c1)CCn1c-2cc(OCC2COCCO2)nc1=O)Cc1ccccc1 (stereo not shown) [Compound 85, 9-[3-(benzyl-methyl-amino)-prop-1-ynyl]-2-([1,4]dioxan-2-ylmethoxy)-6,7-dihydro-pyrimido[6,1-a]isoquinolin-4-one] |  | 0.01 to 100

Next, values leading:

Row | IC50 [1] [nM] | IC50 [2] [nM] | SMILES
12 | 0.01 to 100 | 0.01 to 100 | O=c1nc(OCC2COCCO2)cc2n1CCc1cc(CCCNc3ccccc3)ccc1-2 (stereo in doubt) [Compound 149, 2-((S)-1-[1,4]dioxan-2-ylmethoxy)-9-(3-phenylamino-propyl)-6,7-dihydro-pyrimido[6,1-a]isoquinolin-4-one]
13 |  | 101 to 500 | N#Cc1ccccc1-c1ccc2c(c1)CCn1c-2cc(OCC2COCCO2)nc1=O (stereo not shown) [Compound 4, 2-[2-([1,4]dioxan-2-ylmethoxy)-4-oxo-6,7-dihydro-4H-pyrimido[6,1-a]isoquinolin-9-yl]-benzonitrile]
14 | 101 to 500 | 101 to 500 | N#CCOc1ccc2c(c1)CCn1c-2cc(OCC2COCCO2)nc1=O (stereo not shown) [Compound 7, [2-([1,4]dioxan-2-ylmethoxy)-4-oxo-6,7-dihydro-4H-pyrimido[6,1-a]isoquinolin-9-yloxy]-acetonitrile]
15 | 101 to 500 | 101 to 500 | O=c1nc(OCC2COCCO2)cc2n1CCc1cc(OCc3ncco3)ccc1-2 (stereo not shown) [Compound 8, 2-([1,4]dioxan-2-ylmethoxy)-9-(oxazol-2-ylmethoxy)-6,7-dihydro-pyrimido[6,1-a]isoquinolin-4-one]
16 | 101 to 500 | 101 to 500 | Cn1cncc1C#Cc1ccc2c(c1)CCn1c-2cc(OCC2COCCO2)nc1=O (stereo not shown) [Compound 16, 2-([1,4]dioxan-2-ylmethoxy)-9-(3-methyl-3H-imidazol-4-ylethynyl)-6,7-dihydro-pyrimido[6,1-a]isoquinolin-4-one]
17 |  | 0.01 to 100 | O=c1nc(OCC2COCCO2)cc2n1CCc1cc(-c3ccc4[nH]ccc4c3)ccc1-2 (stereo not shown) [Compound 22, 2-([1,4]dioxan-2-ylmethoxy)-9-(1H-indol-5-yl)-6,7-dihydro-pyrimido[6,1-a]isoquinolin-4-one]
18 |  | 101 to 500 | COc1ccccc1-c1ccc2c(c1)CCn1c-2cc(OCC2COCCO2)nc1=O (stereo not shown) [Compound 23, 2-([1,4]dioxan-2-ylmethoxy)-9-(2-methoxy-phenyl)-6,7-dihydro-pyrimido[6,1-a]isoquinolin-4-one]
19 |  | 0.01 to 100 | Cn1ccc2cc(-c3ccc4c(c3)CCn3c-4cc(OCC4COCCO4)nc3=O)ccc21 (stereo not shown) [Compound 34, 2-([1,4]dioxan-2-ylmethoxy)-9-(1-methyl-1H-indol-5-yl)-6,7-dihydro-pyrimido[6,1-a]isoquinolin-4-one]
20 | 0.01 to 100 | 101 to 500 | O=c1nc(OCC2COCCO2)cc2n1CCc1cc(C#Cc3ccccn3)ccc1-2 (stereo not shown) [Compound 36, 2-([1,4]dioxan-2-ylmethoxy)-9-pyridin-2-ylethynyl-6,7-dihydro-pyrimido[6,1-a]isoquinolin-4-one]
21 | 0.01 to 100 | 0.01 to 100 | CC(C)(C)C#Cc1ccc2c(c1)CCn1c-2cc(OCC2COCCO2)nc1=O (stereo not shown) [Compound 52, 9-(3,3-Dimethyl-but-1-ynyl)-2-([1,4]dioxan-2-ylmethoxy)-6,7-dihydro-pyrimido[6,1-a]isoquinolin-4-one]
22 | 0.01 to 100 | 0.01 to 100 | O=c1nc(OCC2COCCO2)cc2n1CCc1cc(-c3ccc(N4CCOCC4)nc3)ccc1-2 (stereo not shown) [Compound 62, 2-([1,4]dioxan-2-ylmethoxy)-9-(6-morpholin-4-yl-pyridin-3-yl)-6,7-dihydro-pyrimido[6,1-a]isoquinolin-4-one]
23 |  | 0.01 to 100 | CC(O)(C#Cc1ccc2c(c1)CCn1c-2cc(OCC2COCCO2)nc1=O)c1ccccc1 (stereo not shown) [Compound 92, 2-([1,4]dioxan-2-ylmethoxy)-9-(3-hydroxy-3-phenyl-but-1-ynyl)-6,7-dihydro-pyrimido[6,1-a]isoquinolin-4-one]
24 |  | 0.01 to 100 | O=c1nc(OC[C@H]2COCCO2)cc2n1CCc1cc(C#CC3CC3)ccc1-2 [Compound 111, 9-cyclopropylethynyl-2-((R)-1-[1,4]dioxan-2-ylmethoxy)-6,7-dihydro-pyrimido[6,1-a]isoquinolin-4-one]
25 |  | 0.01 to 100 | O=c1nc(OC[C@@H]2COCCO2)cc2n1CCc1cc(C#CC3CC3)ccc1-2 [Compound 122, 9-cyclopropylethynyl-2-((S)-1-[1,4]dioxan-2-ylmethoxy)-6,7-dihydro-pyrimido[6,1-a]isoquinolin-4-one]
